Results: patent US7320975B2, “2-(2-pyridyl)-5-phenyl-6-aminopyrimidine, method and intermediate products for the production and use thereof for combating noxious fungi” (BASF Aktiengesellschaft, priority 2002, dated 2008)

Assay: Lipophilicity parameter log Pow by RP HPLC run time method (OECD test guidelines)
Type: physicochemical
Experimental: The determination of the lipophilicity parameter log Pow (Table I) was carried out in accordance with OECD test guidelines using the RP HPLC run time method.
To this end, a log k′/log Pow correlation curve based on ten reference substances was plotted and was validated with the help of the lipophilicity parameters of eight comparison substances established through the extraction method.
A commercially available reversed-phase C18 stationary phase was used as stationary phase. Chromatographic separation was carried out with methanol and a buffer solution as mobile phase at pH 7.4 under isocratic conditions.
The retention times of the standards tR were converted in accordance with equation Φ into the capacity factors k′, in which t0, as reaction time of the solvent unretarded on the reversed-phase C18 stationary phase, represents the dead time of the chromatographic system:
The linear correlation of the log k′ values with the log Pow values of the standards published in the appendix to the guidelines 92/69/EEC yields the correlation curve through linear regression.
The lipophilicity parameters log Pow of the analytes were after calculation of the logarithmic capacity factor log k′ interpolated from the correlation curve of the standards.

[1] = RP HPLC run time method (OECD test guidelines)
[2] = RP HPLC run time method, OECD test guidelines

| SMILES | log Pow [1] | log Pow [2] |
| --- | --- | --- |
| CCN(CC)c1nc(-c2ccccn2)nc(Cl)c1-c1c(F)cc(F)cc1F [1-9] | log Pow 4.08 |  |
| C[C@H](Nc1nc(-c2ccccn2)nc(Cl)c1-c1c(F)cc(F)cc1F)C(C)(C)C [1-10] | log Pow 4.75 |  |
| C=C(C)CN(CC)c1nc(-c2ccccn2)nc(Cl)c1-c1c(F)cccc1Cl [I-2] | log Pow 4.73 | logPow 4.73 |
| CC(C)Nc1nc(-c2ccccn2)nc(Cl)c1-c1c(F)cccc1Cl [I-3] | log Pow 3.59 | logPow 3.59 |
| CCN(CC)c1nc(-c2ccccn2)nc(Cl)c1-c1c(F)cccc1Cl [I-5] | log Pow 4.23 | logPow 4.23 |
| C[C@@H](Nc1nc(-c2ccccn2)nc(Cl)c1-c1c(F)cccc1Cl)C(C)(C)C [I-7] | log Pow 4.8 | logPow 4.8 |
| CCN(CC)c1nc(-c2ccccn2)nc(Cl)c1-c1c(F)cc(F)cc1F [I-9] |  | logPow 4.08 |
| C[C@H](Nc1nc(-c2ccccn2)nc(Cl)c1-c1c(F)cc(F)cc1F)C(F)(F)F [I-12] | log Pow 4.5 | logPow 4.5 |
| Cc1cccc(-c2nc(Cl)c(-c3c(F)cc(F)cc3F)c(N3CCOCC3)n2)n1 [I-24] | log Pow 4.25 | logPow 4.25 |
| CCN(CC)c1nc(-c2ccccn2)nc(Cl)c1-c1c(F)cc(OC)cc1F [I-64] | logP 5.0 | logP 5.0 |
| CCNc1nc(-c2ccccn2)nc(Cl)c1-c1c(F)cc(OC)cc1F [I-65] | logP 4.0 | logP 4.0 |
| CC(C)Nc1nc(-c2ccccn2)nc(Cl)c1-c1c(F)cc(O)cc1F [I-70] | log.P 3.0 | log.P 3.0 |
| CCN(CC)c1nc(-c2ccccn2)nc(Cl)c1-c1c(F)cccc1F [I-81] | logP 4.7 | logP 4.7 |
| CC(C)[C@H](C)Nc1nc(-c2ccccn2)nc(Cl)c1-c1c(F)cccc1F [I-82] | logP 5.0 | logP 5.0 |
| CC(C)Nc1nc(-c2ccccn2)nc(Cl)c1-c1c(F)cccc1F [I-83] | logP 4.1 | logP 4.1 |
| CC(C)[C@@H](C)Nc1nc(-c2ccccn2)nc(Cl)c1-c1c(F)cccc1F [I-84] | logP 5.0 | logP 5.0 |
| CCNc1nc(-c2ccccn2)nc(Cl)c1-c1ccc(C)cc1C [I-90] | logP 4.6 | logP 4.6 |
| Cc1ccc(-c2c(Cl)nc(-c3ccccn3)nc2NC(C)C)c(F)c1 [I-94] | logP 4.8 | logP 4.8 |
| CCNc1nc(-c2ccccn2)nc(Cl)c1-c1ccc(F)cc1C [I-114] | logP 4.1 | logP 4.1 |
| CCN(CC)c1nc(-c2ncccc2C)nc(Cl)c1-c1c(F)cc(F)cc1F [I-117] | logP 4.6 | logP 4.6 |
